Source: patent US12139481B2, “Compositions comprising macrocycle derivatives incorporating bridged macrocycles and methods of producing and using same” (Southwestern Oklahoma State University, priority 2015, dated 2024)
pIC50: −log10 of the molar value.

System: Cryptococcus neoformans ATCC 90113
Test: Antimicrobial microdilution assay against Cryptococcus neoformans (modified CLSI/NCCLS, optical density)
Type: cell-based
Conditions: for X more potent than Amphotericin B: C. neoformans, ratio of molar IC50 to Amphotericin B; for C. neoformans IC50 / pIC50: in vitro, C. neoformans ATCC 90113; for pIC50: read-out: C. neoformans IC50 (mol/L)
Procedure: Summary: Various macrocyclic derivatives constructed in accordance with the presently disclosed and/or claimed inventive concept(s) were screened in vitro against Cryptococcus neoformans ATCC 90113 using a microdilution assay. The minimum fungicidal concentration (MFC), the lowest test concentration that kills the organism, was determined in broth media.
Antimicrobial assay: Cryptococcus neoformans ATCC 90113 were obtained from the American Type Culture Collection (Manassas, VA.). The susceptibility testing was performed using a modified version of the CLSI (formerly NCCLS) methods (see below), and optical density was used to monitor growth. Samples were serially diluted in 20% DMSO/saline and transferred in duplicate to 96-well flat bottom microplates. Microbial inocula were prepared by correcting the OD630 of cell/spore suspensions in incubation broth RPMI at pH 6.0 to afford final desired target inocula. Amphotericin B (“AMB;” ICN Biomedicals, OH) was used as drug control. The organism concentration was read at 630 nm using the Biotek Powerwave XS plate reader (Bio-Tek instruments, VT) prior to and after incubation. Minimum fungicidal concentrations were determined by removing 5 μL from each clear well, transferring to agar, and incubating until growth was seen. The MFC/MBC is defined as the lowest test concentration that kids the organism (allows no growth on agar).
References for NCCLS methods referenced above: 1 NCCLS. Reference method for broth dilution antifungal susceptibility testing of yeasts, Vol. 22. Approved standard, 2nd ed. Wayne: National Committee for Clinical Laboratory Standards; 2002: 1-51. 2 NCCLS. Reference method for broth dilution antifungal susceptibility testing of conidium forming filamentous fungi, Vol. 18. Proposed standard M38-P. Wayne: National Committee for Clinical Laboratory Standards; 1998: 1-39. 3 NCCLS. Methods for dilution antimicrobial susceptibility tests for bacteria that grow aerobically, Vol. 20. NCCLS Document M7-A5. Wayne: National Committee for Clinical Laboratory Standards; 2000: 1-58.
The term “IC50” as used herein will be understood to refer to a test concentration in mol/L that affords 50% inhibition of the microbe relative to negative and positive controls. […] The abbreviation “MFC” as used herein will be understood to refer to a minimum fungicidal concentration, or the lowest test concentration in mol/L that kills the organism. All IC50s are calculated using the XLfit® fit curve fitting software (ID Business Solutions Ltd, Guildford, Surrey, UK).
General Experimental Procedures. All organisms were obtained from the American Type Culture Collection (Manassas, VA) and include the fungi Candida albicans ATCC 90028, C. glabrata ATCC 90030, C. krusei ATCC 6258, and Cryptococcus neoformans ATCC 90113, and the bacteria Staphylococcus aureus ATCC 29213 and methicillin-resistant S. aureus ATCC 33591 (MRS). All organisms were tested using modified versions of the CLSI (formerly NCCLS) methods. For all organisms, optical density was used to monitor growth (NCCLS, Reference Method for Broth Dilution Antifungal Susceptibility Testing of Yeasts; Approved Standard M27-A2. National Committee on Clinical Laboratory Standards, 2002 22 (15); and NCCLS, Methods for Dilution Antimicrobial Susceptibility Tests for Bacteria that Grow Aerobically; Approved Standard, Seventh Edition M7-A7. National Committee on Clinical Laboratory Standards, 2006. 26(2)).
Samples (dissolved in DMSO) were serially-diluted in 20% DMSO/saline and transferred (10 μL) in duplicate to 96 well flat bottom microplates.

| Molecule | X more potent than Amphotericin B | C. neoformans IC50 [µg/mL] | pIC50 |
| --- | --- | --- | --- |
| CC(=O)[O-].CC(=O)[O-].CC(=O)[O-].F[P-](F)(F)(F)(F)F.F[P-](F)(F)(F)(F)F.F[P-](F)(F)(F)(F)F.[Co+3].[Co+3].c1cc(CN2CCCN3CCNCCCN(CC3)CC2)ccc1CN1CCCN2CCNCCCN(CC2)CC1 [TJH414B, [Co2(H2-p-CB-cyclams)(OAc)3][PF6]3] | 1.31 | 0.234 | 6.74 |
| CC(=O)[O-].CC(=O)[O-].F[P-](F)(F)(F)(F)F.F[P-](F)(F)(F)(F)F.[Ni+2].[Ni+2].c1cc(CN2CCCN3CCNCCCN(CC3)CC2)ccc1CN1CCCN2CCNCCCN(CC2)CC1 [TJH415B, [Ni2(H2-p-CB-cyclams)(OAc)2][PF6]2] | 0.30 | 0.850 | 6.10 |
| CC(=O)[O-].CC(=O)[O-].F[P-](F)(F)(F)(F)F.F[P-](F)(F)(F)(F)F.O.O.O.O.O.[Cu+2].[Cu+2].c1cc(CN2CCCN3CCNCCCN(CC3)CC2)ccc1CN1CCCN2CCNCCCN(CC2)CC1 [TJH416B, [Cu2(H2-p-CB-cyclams)(OAc)2][PF6]2•5H2O] | 0.09 | 3.030 | 5.59 |
| CC(=O)[O-].CN1CCN2CCN(CC1)CCN(Cc1ccccc1)CC2.F[P-](F)(F)(F)(F)F.F[P-](F)(F)(F)(F)F.[Co+3] [TRH15, [Co(Bn1Me1Bcyclen)(OAc)][PF6]2] | 0.21 | ≤ 0.800 | 5.95 |
| CC(=O)[O-].CN1CCCN2CCN(CCCN(Cc3ccccc3)CC2)CC1.F[P-](F)(F)(F)(F)F.[Co+2] [TRH16, [Co(Bn1Me1Bcyclam)(OAc)]PF6] | 0.02 | 9.190 | 4.81 |
| Ni(Py-SB-Cyclam)Cl2•3H2O [ADS20] | 0.01 | 18.590 | 4.43 |
| [Co2(p-CB-Homocyclens)(OAc)2][PF6]2 [TJH379A] | 0.32 | ≤ 0.800 | 6.13 |
| [Co(Me1Pic1-CB-cyclen)](PF6)3 [KRW48] | 0.18 | 1.090 | 5.89 |
| [Co(Me1Py1-CB-Cyclam)Cl]PF6 [DGJ012] | 0.03 | 4.730 | 5.08 |
| [Cu2(m-SB-cyclam-cyclen)(OAc)][PF6]3•2H2O [CMB034] | 0.35 | ≤ 0.800 | 6.17 |
| [Cu2(p-CB-Homocyclens)(OAc)2][PF6]2 [ANC011] | 0.06 | 4.190 | 5.41 |
| [Cu2(p-SB-cyclam-cyclen)(OAc)1.2][PF6]2.8 [CMB018] | 0.09 | 3.020 | 5.57 |
| [Cu(Bn2PBCyclen)(C2H3O2)0.4][PF6]1.6 [AW040] | 0.02 | 7.050 | 5.00 |
| [Cu(dcp1-SB-cyclen)(OAc)]PF6 [OB105] | 0.08 | 2.190 | 5.51 |
| [Fe2(m-cyclam-homocyclen)][FeCl4]2•7H2O [AW048] | 0.17 | 1.660 | 5.86 |
| [Fe(Py-SB-Cyclam)Cl]PF6 [ADS18C] | 0.01 | 18.540 | 4.48 |
| [Mn(Py-SB-Cyclam)Cl]PF6•3H2O [ADS17] | 0.03 | 5.220 | 5.07 |
| [Ni2(m-SB-cyclam-cyclen)(OAc)][PF6]3 [CMB033] | 0.16 | 1.710 | 5.82 |
| [Ni2(p-SB-cyclam-cyclen)(OAc)][PF6]3•H2O [CMB017A] | 0.06 | 4.940 | 5.37 |
